Data reported in patent publication US20240024273A1, “TOPICAL ADMINISTRATION OF 2-(DIETHYLAMINO)ETHYL 2-(4-ISOBUTYLPHENYL)PROPRIONATE FOR TREATMENT OF DISEASES” (TECHFIELDS PHARMA CO., LTD., priority 2020, published 2024).

System: Collagen II induced arthritis
Assay: Collagen II induced arthritis
Format: in vivo, Lewis rats
Conditions: 10, 30 and 90 mg/kg daily, topical

SMILES: CCN(CC)CCOC(=O)C(C)c1ccc(CC(C)C)cc1 (stereo not shown) [2-(diethylamino)ethyl 2-(4-isobutylphenyl)propionate]
- onset of the disease: postponed the onset of the disease.
